Patent US20200369728A1, “PEPTIDOMIMETIC MACROCYCLES AND USES THEREOF” (Aileron Therapeutics, Inc., priority 2015, published 2020)
Bridge positions count the residues as written; N and C are the ends. Square brackets hold non-standard residues; d marks the D form. Peptide text beside a SMILES is read from it. R8 = C=CCCCCCC[C@@](C)(N)C(=O)O; S5 = C=CCCC[C@](C)(N)C(=O)O

Experiments:
Caspase 3 = Caspase 3 detection assay in SJSA1 cells; assay type: cell-based; conditions: SJSA1, 48 h, Caspase 3 activation over DMSO-treated cells
SJSA-1 cells = experiment: Cell lysis by peptidomimetic macrocycles (LDH release); assay type: cell-based; conditions: SJSA-1, 1 h
Outline: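 SJSA-1 cells plated the day before, switched to RPMI with 1% FBS, then exposed 1 h at 37 °C to macrocycle at final 50 μM to 6.25 μM in 0.5% DMSO. LDH released into the supernatant was measured by kit. Controls: 0.5% DMSO (non-lytic), 10 μM melittin and 1% Triton X-100 (lytic).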

Row | SMILES | caspase 0.3 μM (Caspase 3) | caspase 3 μM (Caspase 3) | caspase 10 μM (Caspase 3) | caspase 30 μM (Caspase 3) | 6.25 μM % Lysed cells (1 h LDH) (SJSA-1 cells) [%] | 25 μM % Lysed cells (1 h LDH) (SJSA-1 cells) [%] | 50 μM % Lysed cells (1 h LDH) (SJSA-1 cells) [%] | caspase 1 μM (Caspase 3)
1 | CC(=O)N[C@@H](CC(C)C)C(=O)N[C@H](C(=O)N[C@@H](Cc1ccccc1)C(=O)N[C@]1(C)CCCCCCC=CCCC[C@@](C)(C(=O)N[C@@H](C)C(=O)N[C@@H](C)C(=O)N[C@H](C(=O)N[C@H](C)C(N)=O)C(C)C)NC(=O)[C@H](CC(C)C)NC(=O)[C@H](CCC(N)=O)NC(=O)[C@H](C)NC(=O)[C@H](Cc2c[nH]c3ccccc23)NC(=O)[C@H](Cc2ccc(O)cc2)NC(=O)[C@H](CCC(=O)O)NC1=O)[C@@H](C)O (single isomer, unassigned) [compound 221] | 1 | 3 | 6 | 12 | 3 | 3 | 11 | 
2 | CC[C@H](C)[C@H](NC(=O)[C@H](C)NC(=O)[C@H](C)NC(=O)[C@]1(C)CCCC=CCCCCCC[C@@](C)(NC(=O)[C@H](Cc2ccccc2)NC(=O)[C@@H](NC(=O)[C@H](CC(C)C)NC(C)=O)[C@@H](C)O)C(=O)N[C@@H](CCC(=O)O)C(=O)N[C@@H](Cc2c[nH]cn2)C(=O)N[C@@H](Cc2c[nH]c3ccccc23)C(=O)N[C@@H](C)C(=O)N[C@@H](CCC(N)=O)C(=O)N[C@@H](CC(C)C)C(=O)N1)C(=O)N[C@H](C)C(N)=O (single isomer, unassigned) [compound 223] | 1 | 1 | 5 | 18 | −2 | −4 | −1 | 
3 | CC(=O)N[C@@H](CC(C)C)C(=O)N[C@H](C(=O)N[C@@H](Cc1ccccc1)C(=O)N[C@]1(C)CCCCCCC=CCCC[C@@](C)(C(=O)N[C@@H](C)C(=O)N[C@@H](C)C(=O)N[C@@H](C)C(=O)N[C@@H](C)C(=O)N[C@@H](C)C(=O)N[C@@H](C)C(=O)N[C@H](C)C(N)=O)NC(=O)[C@H](CC(C)C)NC(=O)[C@H](CCC(N)=O)NC(=O)[C@H](C)NC(=O)[C@H](Cc2c[nH]c3ccccc23)NC(=O)[C@H](Cc2ccc(O)cc2)NC(=O)[C@H](C)NC1=O)[C@@H](C)O (single isomer, unassigned) [compound 317] | 3 | 9 | 26 | 35 | 0 | 0 | 0 | 4
4 | CC(=O)N[C@@H](CC(C)C)C(=O)N[C@H](C(=O)N[C@@H](Cc1ccccc1)C(=O)N[C@]1(C)CCCCCCC=CCCC[C@@](C)(C(=O)N[C@@H](C)C(=O)N[C@@H](C)C(=O)N[C@@H](C)C(=O)N[C@@H](C)C(=O)N[C@@H](C)C(=O)N[C@@H](C)C(=O)N[C@H](C)C(N)=O)NC(=O)[C@H](CC(C)C)NC(=O)[C@H](CCC(N)=O)NC(=O)[C@H](C)NC(=O)[C@H](Cc2c[nH]c3ccccc23)NC(=O)[C@H](Cc2ccc(O)cc2)NC(=O)[C@H](CCC(=O)O)NC1=O)[C@@H](C)O (single isomer, unassigned) [compound 343] | 1 | 2 | 5 | 29 | 0 | 0 | 0 | 1
5 | CC(=O)N[C@@H](CC(C)C)C(=O)N[C@H](C(=O)N[C@@H](Cc1ccccc1)C(=O)N[C@]1(C)CCCCCCC=CCCC[C@@](C)(C(=O)N[C@@H](C)C(=O)N[C@@H](C)C(=O)N[C@@H](C)C(=O)N[C@@H](C)C(=O)N[C@@H](C)C(=O)N[C@H](C)C(N)=O)NC(=O)[C@H](CC2CCC2)NC(=O)[C@H](CCC(N)=O)NC(=O)[C@H](C)NC(=O)[C@H](Cc2c[nH]c3ccccc23)NC(=O)[C@H](Cc2ccc(O)cc2)NC(=O)[C@H](CCC(=O)O)NC1=O)[C@@H](C)O (single isomer, unassigned) [compound 347] | 2 | 5 | 8 | 29 | 0 | 0 | 0 | 3
6 | CC[C@H](C)[C@H](NC(=O)[C@H](C)NC(=O)[C@H](CO)NC(=O)[C@]1(C)CCCC=CCCCCCC[C@@](C)(NC(=O)[C@H](Cc2ccccc2)NC(=O)[C@@H](NC(=O)[C@H](CC(C)C)NC(C)=O)[C@@H](C)O)C(=O)N[C@@H](C)C(=O)N[C@@H](Cc2ccc(O)cc2)C(=O)N[C@@H](Cc2c[nH]c3ccccc23)C(=O)N[C@@H](C)C(=O)N[C@@H](CCC(N)=O)C(=O)N[C@@H](CC(C)C)C(=O)N1)C(N)=O [compound 8] (Ac-LTF[R8]AYWAQL[S5]SAI-NH2; staple 4-11) |  | 1 | 19 | 25 | −1 | 1 | 1 | 
7 | CSCC[C@H](NC(=O)[C@H](C)NC(=O)[C@H](C)NC(=O)[C@]1(C)CCCC=CCCCCCC[C@@](C)(NC(=O)[C@H](Cc2ccccc2)NC(=O)[C@@H](NC(=O)[C@H](CC(C)C)NC(C)=O)[C@@H](C)O)C(=O)N[C@@H](C)C(=O)N[C@@H](Cc2ccc(O)cc2)C(=O)N[C@@H](Cc2c[nH]c3ccccc23)C(=O)N[C@@H](C)C(=O)N[C@@H](C)C(=O)N[C@@H](CC(C)C)C(=O)N1)C(=O)N[C@H](C)C(N)=O [compound 72] (Ac-LTF[R8]AYWAAL[S5]AAM[dA]-NH2; staple 4-11) | 1 | 1 | 4 | 10 | 2 | 0 | 3 | 
8 | CC(=O)N[C@@H](CC(C)C)C(=O)N[C@H](C(=O)N[C@@H](Cc1ccccc1)C(=O)N[C@]1(C)CCCCCCC=CCCC[C@@](C)(C(=O)N[C@@H](CO)C(=O)N[C@H](C(=O)NCC(N)=O)C(C)C)NC(=O)[C@H](CC(C)C)NC(=O)[C@H](CCC(N)=O)NC(=O)[C@H](C)NC(=O)[C@H](Cc2c[nH]c3ccccc23)NC(=O)[C@H](Cc2ccc(O)cc2)NC(=O)[C@H](C)NC1=O)[C@@H](C)O [compound 123] (Ac-LTF[R8]AYWAQL[S5]SVG-NH2; staple 4-11) | 1 | 1 | 6 | 14 | −2 | 5 | 3 | 
9 | CC(=O)N[C@@H](CCC(=O)O)C(=O)N[C@H](C(=O)N[C@@H](Cc1ccccc1)C(=O)N[C@]1(C)CCCCCCC=CCCC[C@@](C)(C(=O)N[C@@H](CO)C(=O)N[C@H](C(=O)N[C@@H](CO)C(N)=O)C(C)C)NC(=O)[C@H](CC(C)C)NC(=O)[C@H](CCC(N)=O)NC(=O)[C@H](C)NC(=O)[C@H](Cc2c[nH]c3ccccc23)NC(=O)[C@H](Cc2ccc(O)cc2)NC(=O)[C@H](C(C)C)NC1=O)[C@@H](C)O [compound 130] (Ac-ETF[R8]VYWAQL[S5]SVS-NH2; staple 4-11) | 1 | 2 | 6 | 17 | 1 | 0 | −1 | 
10 | CC[C@H](C)[C@H](NC(=O)[C@H](C)NC(=O)[C@H](C)NC(=O)[C@]1(C)CCCC=CCCCCCC[C@@](C)(NC(=O)[C@H](Cc2ccccc2)NC(=O)[C@@H](NC(=O)[C@H](CC(C)C)NC(C)=O)[C@@H](C)O)C(=O)N[C@@H](C)C(=O)N[C@@H](Cc2c[nH]cn2)C(=O)N[C@@H](Cc2c[nH]c3ccccc23)C(=O)N[C@@H](C)C(=O)N[C@@H](CCC(N)=O)C(=O)N[C@@H](CC(C)C)C(=O)N1)C(=O)N[C@H](C)C(N)=O [compound 170] (Ac-LTF[R8]AHWAQL[S5]AAI[dA]-NH2; staple 4-11) | 1 | 1 | 16 | 20 | 2 | 1 | −1 | 
11 | CC[C@H](C)[C@H](NC(C)=O)C(=O)N[C@H](C(=O)N[C@@H](Cc1ccccc1)C(=O)N[C@]1(C)CCCCCCC=CCCC[C@@](C)(C(=O)N[C@@H](C)C(=O)N[C@@H](C)C(=O)N[C@H](C(=O)N[C@H](C)C(N)=O)[C@@H](C)CC)NC(=O)[C@H](CC(C)C)NC(=O)[C@H](CCC(N)=O)NC(=O)[C@H](C(C)C)NC(=O)[C@H](Cc2c[nH]c3ccccc23)NC(=O)[C@H](Cc2ccc(O)cc2)NC(=O)[C@H](Cc2ccccc2)NC1=O)[C@@H](C)O [compound 177] (Ac-ITF[R8]FYWVQL[S5]AAI[dA]-NH2; staple 4-11) | 1 | 1 | 8 | 20 | −1 | 0 | 1 | 
12 | CC(=O)N[C@@H](CC(C)C)C(=O)N[C@H](C(=O)N[C@@H](Cc1ccccc1)C(=O)N[C@]1(C)CCCCCCC=CCCC[C@@](C)(C(=O)N[C@@H](C)C(=O)N[C@@H](Cc2c[nH]cn2)C(=O)N[C@@H](Cc2ccccc2)C(=O)N[C@@H](C)C(N)=O)NC(=O)[C@H](CC(C)C)NC(=O)[C@H](CCC(N)=O)NC(=O)[C@H](C)NC(=O)[C@H](Cc2c[nH]c3ccccc23)NC(=O)[C@H](Cc2c[nH]cn2)NC(=O)[C@H](C)NC1=O)[C@@H](C)O [compound 183] (Ac-LTF[R8]AHWAQL[S5]AHFA-NH2; staple 4-11) | 1 | 1 | 4 | 8 | 2 | 0 | 3 | 
